Data as given in patent US11660290B2, “Affinity based drug release formulations” (McMaster University, priority 2016, dated 2023).

Key:
[1] = molecular target: Alexa-Fluor 488 streptavidin (Streptomyces avidinii, UniProt P22629); assay: Release study of fluorescent streptavidin from agarose-desthiobiotin hydrogels; settings: for release of fluorescent streptavidin from the hydrogel (rate, in words): 1 wt % Ag-D gel, insoluble biotin derivative, PBS
Procedure: Ag-D was dissolved in 0.1M PBS at 2 wt %, Alexa-Fluor 488 streptavidin was subsequently added and the mixture was incubated at 37° C. for 2 h. […] Gels were cured at 4 C for 20 min to 1 hr and initial fluorescent readings of the gel were taken. 200 uL of PBS was subsequently dispensed overtop of the gels and collected and replenished at specific time intervals. The loss of fluorescence as well as the released fluorescent streptavidin was measured at specific time points (FIGS. 5B and 6).

[2] = Transparency of agarose hydrogels with solid suspension of oleylbiotin; assay type: physicochemical; settings: solid suspension in agarose hydrogel
HUVEC = system: HUVEC
Procedure: Additionally, toxicity studies were performed using the MTS assay using HUVEC, assessing the toxicity of the components of the drug delivery system as well as the complete drug delivery system (FIGS. 11 A and B).

Chain of Alexa-Fluor 488 streptavidin (P22629 25-183): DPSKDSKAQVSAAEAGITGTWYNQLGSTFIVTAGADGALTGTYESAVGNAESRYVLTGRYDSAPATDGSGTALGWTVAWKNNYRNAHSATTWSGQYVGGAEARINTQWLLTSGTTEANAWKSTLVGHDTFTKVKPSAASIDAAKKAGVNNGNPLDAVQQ

| Molecule | release of fluorescent streptavidin from the hydrogel (rate, in words) [1] | time over which oleylbiotin concentration modulates the release of streptavidin ([1]; various oleylbiotin concentrations, system of Example 1) | duration of streptavidin release (extrapolation of preliminary experiments) ([1]; wild-type streptavidin) | concentration that did not decrease the transparency of agarose gels [2] | toxicity of single components of the drug delivery system (HUVEC) |
| --- | --- | --- | --- | --- | --- |
| Tert-butyl biotin | slower release | – | – | – | – |
| O=C(O)CCCC[C@@H]1SC[C@@H]2NC(=O)N[C@@H]21 [biotin, reference compound] | most rapid release | – | – | – | – |
| oleyl-biotin | slowest and longest release | at least 150 days | > 100 days | ≤ 80 µM | None of the components display any inherent toxicity except for the solid suspension of oleylbiotin |
